The target of this experiment is T1, Human recombinant SIRT6 (Homo sapiens, UniProt Q8N6T7).
T1 construct: six-histidine (His6); made in house; host or cells: Escherichia coli BL21
As to the kind of experiment: SIRT6 enzymatic activity assay (fluorogenic de-myristoylation of histone H3 peptide-AMC, trypsin-coupled). Format: biochemical. As to conditions: for % activity 20 uM: compound 20 uM. How it is done:
Human recombinant SIRT6 (sequence identifier: CAG33481.1; GI:4814651) was expressed in large scale in Escherichia coli strain BL21 as a six-histidine-tagged protein, after transformation of the expression plasmid pET28-SIRT6. The SIRT6 enzyme was purified from the bacteria culture broth in a two-step strategy. The first purification step was carried out by cation exchange chromatography on a HiTrap CM-Sepharose column (GE Healthcare) using an FPLC system. The second purification step was performed by immobilized metal ion affinity chromatography (IMAC) using a cobalt affinity column (Clontech).
The enzymatic activity assay is carried out in 96 or 384-well microplates using the purified recombinant SIRT6 and a fluorophore-labeled peptide substrate: 7-amino-4-methylcoumarin (AMC) that is quenched through conjugation to the C-terminal end of a Lysin-myristoylated histone H3 peptide. The activity assay procedure requires two steps, both performed in the same microplate. In the first step, the substrate is incubated with the purified SIRT6 protein along with the co-substrate nicotinamide adenine dinucleotide (NAD+). Upon de-myristoylation, the liberated ε-amino group of the lysine becomes a trypsin substrate. Treatment with trypsin in the second step releases the fluorophore resulting in an increase in fluorescence. Fluorescence intensity is measured using a fluorescent plate reader (excitation and emission at 370 nm and 450 nm, respectively). The fluorescence signal is directly proportional to SIRT6 enzymatic activity.
In the primary screening, compounds from a library (ChemDiv Inc.) were tested at a single concentration of 20 micromolar for their potential to modulate SIRT6 enzymatic activity. The assay was carried out in 384-well black well plates and all liquid handling was done using a robotic liquid handler. Purified recombinant SIRT6 (1 micromolar) was pre-incubated with each compound (or DMSO in control wells) for 15 minutes at room temperature. The first stage of the assay was initiated by adding a ‘substrate solution’ containing the myristoylated histone H3 peptide and NAD+(for final concentrations of 25 micromolar and 20 micromolar, respectively). After one hour incubation at 37° C., a Trypsin solution (6 mg/mL) was added for 30 minutes at room temperature. Fluorescence intensity was measured using a fluorescent plate reader (Tecan) with excitation at 370 nm and emission at 450 nm. The effect of each tested compound was evaluated by the change in the fluorescence intensity compared to control wells. […] To validate the primary screening results, each of the primary “hits” was re-tested, first at concentration of 20 micromolar in duplicates and later at a serial dilution ranging from 100 to 0.2 micromolar in triplicates.

The mark [1] stands for this setting: Table 2, percentage of signal increase relative to control wells.
[2] abbreviates: Table 2, compound 100 uM, percentage of signal increase relative to control wells.

Each structure is given as a SMILES string.

T1 sequence (Q8N6T7 whole entry): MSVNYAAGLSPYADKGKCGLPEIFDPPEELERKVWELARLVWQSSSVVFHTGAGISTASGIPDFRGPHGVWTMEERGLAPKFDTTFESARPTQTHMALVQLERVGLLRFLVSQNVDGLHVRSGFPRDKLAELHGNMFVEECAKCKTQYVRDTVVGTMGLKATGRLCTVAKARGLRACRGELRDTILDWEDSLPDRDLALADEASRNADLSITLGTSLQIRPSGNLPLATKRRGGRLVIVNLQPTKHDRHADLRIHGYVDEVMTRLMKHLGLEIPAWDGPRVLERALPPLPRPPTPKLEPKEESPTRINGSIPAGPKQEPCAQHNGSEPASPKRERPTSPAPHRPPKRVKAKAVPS

As to `C=C(Nc1ccc(CC)c(Cl)c1)c1cc(N)cc2cn[nH]c12` [compound 36], under setting [1], the “% activity 20 uM” value is given as 45%. Moreover, the “% activity 100 uM” value under setting [2] is given as 56%.
`N#Cc1c(N)oc(C2=CC=CC2)c1-c1ccco1` [compound 14]: the “% activity 20 uM” value under setting [1] worked out at 28%. The “% activity 100 uM” value under setting [2] was 48%.
The like results for `C=C(Nc1ccc(Cl)cc1)N1c2ccc(OCC)cc2C(C)=CC1(C)C` [compound 2] were, in that order, 29% and 46%.
Turning to `CC[C@H]1O[C@@H](Cc2ccc3c(c2C)CC(=O)C(C)=C3C)[C@H](C)[C@@H](O)[C@H]1C` [compound 26], the “% activity 20 uM” value under setting [1] is on record as 21%. Moreover, the “% activity 100 uM” value under setting [2] stood at 56%.
On to `C=C(C)C1Cc2cc(C(F)(F)F)ccc2N2CCCCC12` (stereo not drawn) [compound 59], for which the “% activity 20 uM” value under setting [1] is reported as 89%. The “% activity 100 uM” value under setting [2] stood at 175%.
Taken in the same sequence, the figures for `C=C1Cc2ccc(C)cc2C2=C1C(c1ccc(F)cc1)=C(NCCOC)C2` [compound 28] were 134% and 246%.
The like results for `C=C1Cc2c(cccc2CC)C=C1C1=CCC(NC(=O)CCC(=O)NCCCN2CCC(C)CC2)=N1` [compound 37] were, in that order, 42% and 35%.
Taken in the same sequence, the figures for `COc1cc(NC(=O)c2csc(-c3cn(C)c4ncccc34)n2)cc(OC)c1` [compound 55] were 31% and 37%.
Turning to `Cn1c(-c2ccc3[nH]c(-c4ccc(N)cc4)nc3c2)nc2cc(N)ccc21` [compound 7], under setting [1], the “% activity 20 uM” value came out at 118%. The “% activity 100 uM” value under setting [2] stood at 162%.
The like results for `Cc1cc(Nc2ccc(NC(=O)Nc3ccc4c(c3)CCCO4)cc2)nc(NC2CCCCC2)n1` [compound 25] were, in that order, 26% and 22%.
Taken in the same sequence, the figures for `Cc1nc(Nc2ccc(F)cc2)sc1C(=O)Nc1ccc(F)cc1F` [compound 53] were 36% and 22%.
The like results for `O=C1Nc2ccc(Cl)cc2C(c2ccccc2)C1Nc1ccc(Oc2ccccc2)cc1` (stereo not drawn) [compound 13] were, in that order, 24% and 86%.
Regarding `COc1ccc(-c2nn3c(C)nnc3s2)cc1N` [compound 17], the “% activity 20 uM” value under setting [1] amounted to 21%. Under setting [2], the “% activity 100 uM” value is reported as 18%.
For `Cc1cccc2c1N=C(N(CCCN(C)C)C(=O)CCOc1ccccc1)C2` [B], the “% activity 20 uM” value (Table 1, percentage of signal increase relative to control wells) stood at 287%. For the same molecule, the “% activity Max. conc. 100 uM” value (Table 1, compound 100 uM, percentage of signal increase relative to control wells) stood at 252%.
As to `C=C(CN1C(=C)C(c2nc(-c3ccccc3)no2)=C(C)C=C1C)NCCc1ccc(CC)c(CC)c1` [compound 32], the “% activity 20 uM” value under setting [1] was found to be 101%. Moreover, under setting [2], the “% activity 100 uM” value is reported as 73%.
In the case of `CCn1c2ccccc2c2nnc(N3CCN(c4cccc(C(F)(F)F)c4)CC3)nc21` [compound 64], under “Table 3, compound 20 micromolar”, the “% activity (20 micromolar only)” value is on record as 85%.
Consider `C=C(CN1c2ccccc2C(C)(C)C12C=Cc1c(ccc3ccccc13)C2)NC` (stereo not drawn) [compound 10], for which the “% activity 20 uM” value under setting [1] is on record as 25%. Also, the “% activity 100 uM” value under setting [2] was determined as 27%.

(Values after patent US10857170B1, “Molecules, compositions and methods for modulation of SIRT6” (SirTLab Corporation, priority 2015, dated 2020).)
